In brackets after ≈: the same amount, converted by molar mass.
Columns and labels:
Experiment in all cases: microbe, parasite or virus in culture
Assay type in all cases: cell-based
[1] = tested on: Botrytis cinerea; conditions: read-out: MIC (Minimum Inhibitory Concentration) BOTRCI
[2] = tested on: Monilina fructigena; conditions: read-out: MIC (Minimum Inhibitory Concentration) MONIFG
[3] = tested on: Mycosphaerella ligulicola; conditions: Stagonosporopsis ligulicola, read-out: MIC (Minimum Inhibitory Concentration) MYCOLG
[4] = tested on: Sclerotinia sclerotiorum; conditions: read-out: MIC (Minimum Inhibitory Concentration) SCLESC
[5] = tested on: Leptosphaeria nodorum; conditions: Parastagonospora nodorum, read-out: MIC (Minimum Inhibitory Concentration) LEPTNO
[6] = tested on: Phytophthora infestans; conditions: read-out: MIC (Minimum Inhibitory Concentration) PHYTIN
[7] = tested on: Magnaporthe grisea f. sp. oryzae; conditions: Pyricularia oryzae, read-out: MIC (Minimum Inhibitory Concentration) PYRIOR, Table II; total inhibition of mycelial growth, V8 juice nutrient solution, 6-12 days at 18-25°C, visual inspection
[8] = tested on: Rhizoctonia solani; conditions: read-out: MIC (Minimum Inhibitory Concentration) RHIZSO
[9] = tested on: Alternaria solani; conditions: read-out: MIC (Minimum Inhibitory Concentration) ALTESO
[10] = tested on: Pyrenophora teres; conditions: read-out: MIC (Minimum Inhibitory Concentration) PYRNTE

Structure (SMILES)	MIC [1] [µg/mL]	MIC [2] [µg/mL]	MIC [3] [µg/mL]	MIC [4] [µg/mL]	MIC [5] [µg/mL]	MIC [6] [µg/mL]	MIC [7] [µg/mL]	MIC [8] [µg/mL]	MIC [9] [µg/mL]	MIC [10] [µg/mL]
CCCCc1c(-c2c(F)cccc2Cl)c(Cl)nc2ncnn12 [Example 17]	0.2 (≈ 0.59 µM)	3.13 (≈ 9.23 µM)	0.78 (≈ 2.3 µM)	0.78 (≈ 2.3 µM)	0.78 (≈ 2.3 µM)	–	–	–	–	–
FC(F)(F)Oc1ccccc1-c1c(Cl)nc2ncnn2c1C1CCCO1 (stereo not shown) [Example 16]	25 (≈ 65 µM)	> 100	> 100	> 100	> 100	–	–	–	–	–
Fc1cccc(Cl)c1-c1c(Cl)nc2ncnn2c1C1CCCO1 (stereo not shown) [Example 11]	1.56 (≈ 4.42 µM)	3.13 (≈ 8.86 µM)	12.5 (≈ 35.4 µM)	25 (≈ 70.8 µM)	1.56 (≈ 4.42 µM)	–	–	–	–	–
CCCCc1c(-c2ccccc2F)c(Cl)nc2ncnn12 [Example 21]	1.56 (≈ 5.12 µM)	–	–	–	3.13 (≈ 10.3 µM)	100 (≈ 328 µM)	< 0.05	3.13 (≈ 10.3 µM)	0.1 (≈ 0.328 µM)	0.78 (≈ 2.56 µM)
O=C1CCCC(=O)C1c1c(-c2c(F)cccc2Cl)c(Cl)nc2ncnn12 [Example 36]	> 100	–	–	–	> 100	12.5 (≈ 31.8 µM)	> 100	> 100	> 100	> 100
Cc1cccc(-c2c(-c3c(F)cccc3Cl)c(Cl)nc3ncnn23)c1 [Example 34]	6.25 (≈ 16.7 µM)	–	–	–	25 (≈ 67 µM)	50 (≈ 134 µM)	0.78 (≈ 2.09 µM)	> 100	1.56 (≈ 4.18 µM)	> 100
CCCCCc1c(-c2c(F)cccc2Cl)c(Cl)nc2ncnn12 [Example 18]	0.2 (≈ 0.566 µM)	3.13 (≈ 8.86 µM)	0.78 (≈ 2.21 µM)	0.78 (≈ 2.21 µM)	1.56 (≈ 4.42 µM)	–	–	–	–	–
COc1nc2ncnn2c(C2CCCCC2)c1-c1ccccc1F [Example 50]	> 100	–	–	–	> 100	> 100	25 (≈ 76.6 µM)	> 100	> 100	> 100
CC(C)c1c(-c2c(F)cccc2Cl)c(Cl)nc2ncnn12 [Example 27]	0.78 (≈ 2.4 µM)	–	–	–	1.56 (≈ 4.8 µM)	> 100	0.2 (≈ 0.615 µM)	0.39 (≈ 1.2 µM)	> 100	> 100
CCCCc1c(-c2ccccc2Cl)c(Cl)nc2ncnn12 [Example 20]	1.56 (≈ 4.86 µM)	–	–	–	3.13 (≈ 9.74 µM)	> 100	< 0.05	3.13 (≈ 9.74 µM)	0.2 (≈ 0.623 µM)	3.13 (≈ 9.74 µM)
Fc1cccc(F)c1-c1c(Cl)nc2ncnn2c1C1CCCCC1 [Example 40]	0.39 (≈ 1.12 µM)	–	–	–	> 100	> 100	0.39 (≈ 1.12 µM)	> 100	0.1 (≈ 0.287 µM)	3.13 (≈ 8.97 µM)
CCCCc1c(-c2c(F)cccc2F)c(Cl)nc2ncnn12 [Example 22]	1.56 (≈ 4.83 µM)	–	–	–	1.56 (≈ 4.83 µM)	> 100	0.1 (≈ 0.31 µM)	1.56 (≈ 4.83 µM)	0.1 (≈ 0.31 µM)	6.25 (≈ 19.4 µM)
Fc1ccc(-c2c(-c3c(F)cccc3Cl)c(Cl)nc3ncnn23)cc1 [Example 41]	3.13 (≈ 8.3 µM)	–	–	–	> 100	> 100	0.1 (≈ 0.265 µM)	3.13 (≈ 8.3 µM)	1.56 (≈ 4.14 µM)	3.13 (≈ 8.3 µM)
Fc1c(F)c(F)c(-c2c(Cl)nc3ncnn3c2C2CCCCC2)c(F)c1F [Example 101, 5-chloro-7-cyclohexyl-6-(pentafluorophenyl)-1,2,4-triazolo[1,5a]pyrimidine]	0.78 (≈ 1.94 µM)	–	–	–	0.2 (≈ 0.497 µM)	> 100	0.2 (≈ 0.497 µM)	> 100	0.2 (≈ 0.497 µM)	3.13 (≈ 7.77 µM)
Fc1cccc(Cl)c1-c1c(Cl)nc2ncnn2c1CCC(F)(F)F [Example 32]	0.78 (≈ 2.06 µM)	–	–	–	> 100	50 (≈ 132 µM)	0.2 (≈ 0.528 µM)	6.25 (≈ 16.5 µM)	3.13 (≈ 8.26 µM)	12.5 (≈ 33 µM)
